# Reference: ChEMBL document CHEMBL1125127 (J Med Chem, 1990)
# How the values were obtained:
# Canis familiaris [1] = test: Concentration that causes a 20% increase in APD95 (action potential duration at 95% repolarization) from control value in anesthetized dogs; assay type: functional, Canis lupus familiaris
# Canis familiaris [2] = test: Concentration at which maximum change in […] was observed from control value in anesthetized dogs; The maximum observed change APD95 from control value and concentration at 100 uM when this occurred; assay type: functional, Canis lupus familiaris
# Canis familiaris [3] = test: Percent change in blood pressure (BP) from control at active dose 1.0-10 mg/kg administered intraperitoneally in anesthetized dogs; assay type: functional, Canis lupus familiaris
# Canis familiaris [4] = test: Percent change in blood pressure (BP) from control at active dose 30 mg/kg administered intraperitoneally in anesthetized dogs; assay type: functional, Canis lupus familiaris; details: route intraperitoneal
# Canis familiaris [5] = test: Percent change in heart rate (HR) from control at active dose 1.0-10 mg/kg administered intraperitoneally in anesthetized dogs; assay type: functional, Canis lupus familiaris
# Canis familiaris [6] = test: Percent change in FRP from control at active dose 1.0-10 mg/kg administered intraperitoneally; assay type: functional, Canis lupus familiaris
# [7] = Ratio of number of active animals to number of treated at dose 30 mg/kg administered intraperitoneally in anesthetized dogs; No of animals tested=2; assay type: functional; details: route intraperitoneal
# [8] = (§1) Percent change in FRP from control at active dose 30 mg/kg administered intraperitoneally in anesthetized dogs; assay type: functional; details: route intraperitoneal
# [9] = molecular target: Beta adrenergic receptor (Canis familiaris)
# Canis familiaris [10] = test: Percent change in heart rate (HR) from control at active dose 30 mg/kg administered intraduodenally; details: route intraduodenal
# Canis familiaris [11] = test: Concentration at which maximum change in […] was observed from control value in anesthetized dogs; The maximum observed change APD95 from control value and concentration at 30 uM when this occurred; assay type: functional, Canis lupus familiaris
# Canis familiaris [12] = test: Percent change in blood pressure (BP) from control at active dose 22-30 mg/kg administered intraperitoneally in anesthetized dogs; assay type: functional, Canis lupus familiaris
# [13] = Ratio of number of active animals to number of treated at dose 22-30 mg/kg administered intraperitoneally in anesthetized dogs; No of animals tested=2; assay type: functional
# Canis familiaris [14] = test: Percent change in heart rate (HR) from control at active dose 22-30 mg/kg administered intraduodenally
# Canis familiaris [15] = test: Percent change in FRP from control at active dose 22-30 mg/kg administered intraduodenally in anesthetized dogs
# [16] = molecular target: T1, Beta-2 adrenergic receptor (Canis lupus familiaris, UniProt P54833); test: Beta2-receptor selectivity in canine lung tissue in anesthetized dogs; assay type: functional
# Canis familiaris [17] = test: Percent change in blood pressure (BP) from control at active dose 0.3-3 mg/kg administered intraperitoneally in anesthetized dogs; assay type: functional, Canis lupus familiaris
# Canis familiaris [18] = test: Percent change in FRP from control at active dose 0.3-3 mg/kg administered intravenously
# Canis familiaris [19] = test: Percent change in heart rate (HR) from control at active dose 1.0-10 mg/kg administered intraduodenally
# Canis familiaris [20] = test: Percent change in FRP from control at active dose 1.0-10 mg/kg administered intraduodenally in anesthetized dogs
# Canis familiaris [21] = test: Percent change in heart rate (HR) from control at active dose 0.3-3 mg/kg administered intravenously in conscious dogs
# Canis familiaris [22] = test: Maximum change in […] from control value in anesthetized dogs; 10 uM.; assay type: functional, Canis lupus familiaris
# Canis familiaris [23] = test: Percent change in FRP from control at active dose 1.0-10 mg/kg administered intravenously
# Canis familiaris [24] = test: Percent change in heart rate (HR) from control at active dose 1.0-10 mg/kg administered intravenously in conscious dogs
# Canis familiaris [25] = test: Percent change in blood pressure (BP) from control at active dose 1.0-10 mg/kg administered intravenously in anesthetized dogs
# Canis familiaris [26] = test: Percent change in heart rate (HR) from control at active dose 30 mg/kg administered intraperitoneally; assay type: functional, Canis lupus familiaris; details: route intraperitoneal
# Canis familiaris [27] = test: as §1; assay type: functional, Canis lupus familiaris; details: route intraperitoneal
# Canis familiaris [28] = test: Percent change in blood pressure (BP) from control at active dose 0.1-3.0 mg/kg administered intraperitoneally in anesthetized dogs; assay type: functional, Canis lupus familiaris
# Canis familiaris [29] = test: Percent change in FRP from control at active dose 0.1-3.0 mg/kg administered intravenously
# Canis familiaris [30] = test: Percent change in heart rate (HR) from control at active dose 0.1-3.0 mg/kg administered intravenously in conscious dogs
# Canis familiaris [31] = test: Concentration at which maximum change in […] was observed from control value in anesthetized dogs; The maximum observed change APD95 from control value and concentration at 1 uM when this occurred; assay type: functional, Canis lupus familiaris
# [32] = Ratio of number of active animals to number of treated at dose 30 mg/kg administered intraperitoneally in anesthetized dogs; No of animals tested=4; details: route intraperitoneal
# Canis familiaris [33] = test: Percent change in FRP from control at active dose 10-30 mg/kg administered intraperitoneally in anesthetized dogs; assay type: functional, Canis lupus familiaris
# Canis familiaris [34] = test: Percent change in blood pressure (BP) from control at active dose 10-30 mg/kg administered intraperitoneally in anesthetized dogs; assay type: functional, Canis lupus familiaris
# [35] = Ratio of number of active animals to number of treated at dose 10-30 mg/kg administered intraperitoneally in anesthetized dogs; No of animals tested=2; assay type: functional
# Canis familiaris [36] = test: Percent change in heart rate (HR) from control at active dose 10-30 mg/kg administered intraduodenally
# Canis familiaris [37] = test: Percent change in FRP from control at active dose 10 mg/kg administered intraperitoneally in anesthetized dogs; assay type: functional, Canis lupus familiaris; details: route intraperitoneal
# Canis familiaris [38] = test: Percent change in blood pressure (BP) from control at active dose 0.1-10 mg/kg administered intraperitoneally in anesthetized dogs; assay type: functional, Canis lupus familiaris
# Canis familiaris [39] = test: Percent change in blood pressure (BP) from control at active dose 10 mg/kg administered intraperitoneally in anesthetized dogs; assay type: functional, Canis lupus familiaris; details: route intraperitoneal
# Canis familiaris [40] = test: Percent change in heart rate (HR) from control at active dose 0.1-10 mg/kg administered intraperitoneally in anesthetized dogs; assay type: functional, Canis lupus familiaris
# Canis familiaris [41] = test: Percent change in FRP from control at active dose 0.1-10 mg/kg administered intravenously
# Canis familiaris [42] = test: Percent change in heart rate (HR) from control at active dose 10 mg/kg administered intraduodenally; details: route intraduodenal
# [43] = Ratio of number of active animals to number of treated at dose 10 mg/kg administered intraperitoneally in anesthetized dogs; No of animals tested=2; assay type: functional; details: route intraperitoneal
# [44] = Ratio of number of active animals to number of treated at dose 1.0 mg/kg administered intraperitoneally in Epinephrine-induced model in anesthetized dogs; 4/8; assay type: functional; details: route intraperitoneal
# [45] = molecular target: Beta-1 adrenergic receptor (Canis familiaris)
# [46] = molecular target: T1, Beta-2 adrenergic receptor
# Description: Tested for Beta-2 adrenergic receptor selectivity in canine lung tissue in anesthetized dogs
# Canis familiaris [47] = test: Percent change in heart rate (HR) from control at active dose 10 mg/kg administered intraduodenally; details: route intraduodenal; remark: listed apart in the source
# [48] = Ratio of number of active animals to number of treated at dose 1.0-10 mg/kg administered intravenously in PES model in conscious dogs; 5/6
# [49] = Ratio of number of active animals to number of treated administered intraperitoneally in Epinephrine-induced model in anesthetized dogs; 4/8; details: route intraperitoneal
# T1 sequence (P54833 whole entry): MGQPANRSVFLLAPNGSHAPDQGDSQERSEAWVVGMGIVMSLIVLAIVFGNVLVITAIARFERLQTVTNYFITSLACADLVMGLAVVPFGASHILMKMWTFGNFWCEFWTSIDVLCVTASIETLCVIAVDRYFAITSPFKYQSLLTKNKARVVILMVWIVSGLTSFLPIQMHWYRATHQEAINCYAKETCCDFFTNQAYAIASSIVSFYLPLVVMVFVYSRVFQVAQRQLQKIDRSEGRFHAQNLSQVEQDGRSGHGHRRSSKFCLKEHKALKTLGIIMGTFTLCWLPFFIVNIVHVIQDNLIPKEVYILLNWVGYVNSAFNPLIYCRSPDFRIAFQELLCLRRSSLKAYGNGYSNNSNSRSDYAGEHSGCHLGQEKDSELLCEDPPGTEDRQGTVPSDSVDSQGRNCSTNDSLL
smiles,measurement,setting,value
O=C(NCCNCC(O)COc1cccc2ccccc12)c1ccc(-n2ccnc2)cc1 (stereo not given),C20,Canis familiaris [1],1.8 µM
same,Max delta,Canis familiaris [2],57%
same,Change,Canis familiaris [3],-5%
same,Change,Canis familiaris [4],16%
same,Change,Canis familiaris [5],24%
same,Change,Canis familiaris [6],6%
same,Ratio,[7],2
same,Change,[8],13%
same,IC50,[9],0.42 µM
same,Change,Canis familiaris [10],-15%
COc1ccc(OCC(O)CNCCNC(=O)c2ccc(-n3ccnc3)cc2)cc1 (stereo not given),C20,Canis familiaris [1],6.6 µM
same,Max delta,Canis familiaris [11],47%
same,Change,Canis familiaris [12],-1%
same,No. effective,[13],2
same,IC50,[9],61.4 µM
same,Change,Canis familiaris [14],-35%
same,Change,Canis familiaris [15],24%
CS(=O)(=O)Nc1ccc(OC[C@@H](O)CNCCOc2ccc(-n3ccnc3)cc2)cc1 (stereo in doubt; 1) [ERSENTILIDE],IC50,[16],46.5 µM
same,C20 APD95,Canis familiaris [1],0.4 µM
same,Max delta,Canis familiaris [11],92%
same,Change,Canis familiaris [17],3%
same,Change,Canis familiaris [3],3%
same,Change,Canis familiaris [18],13%
same,Change,Canis familiaris [19],-16%
same,Change,Canis familiaris [20],27%
same,Change,Canis familiaris [21],9%
Cc1cccc(OCC(O)CNCCOc2ccc(-n3ccnc3)cc2)c1 (stereo not given),IC50,[16],0.51 µM
same,C20 APD95,Canis familiaris [1],10 µM
same,Max delta,Canis familiaris [22],35%
same,Change,Canis familiaris [23],9%
same,Change,Canis familiaris [24],-12%
same,Change,Canis familiaris [25],-4%
CS(=O)(=O)Nc1ccc(N2CCN(CC(O)CON=C(C3CC3)C3CC3)CC2)cc1 (stereo not given),Change,Canis familiaris [26],-17%
same,C20,Canis familiaris [1],8 µM
same,Max delta,Canis familiaris [11],45%
same,Change,Canis familiaris [27],15%
same,Change,Canis familiaris [3],8%
same,Change,Canis familiaris [4],17%
same,Change,Canis familiaris [5],9%
same,Change,Canis familiaris [6],6%
same,Ratio,[7],1
CS(=O)(=O)Nc1ccc(OC[C@@H](O)CNCCOc2ccc(-n3ccnc3)cc2)cc1 (stereo in doubt; (S)-1) [ERSENTILIDE],IC50,[16],50 µM
same,C20 APD95,Canis familiaris [1],1.8 µM
same,Max delta,Canis familiaris [11],73%
same,Change,Canis familiaris [28],4%
same,Change,Canis familiaris [29],5%
same,Change,Canis familiaris [30],-2%
CS(=O)(=O)Nc1ccc(N2CCN(CC(O)COc3ccccc3)CC2)cc1 (stereo not given),C20,Canis familiaris [1],2.7 µM
same,Max delta,Canis familiaris [31],52%
same,Change,Canis familiaris [27],14%
same,Change,Canis familiaris [4],-17%
same,IC50,[9],15.8 µM
same,Change,Canis familiaris [10],-7%
same,Ratio,[32],1
CS(=O)(=O)Nc1ccc(C(=O)N2CCN(CC(O)COc3cccc4ccccc34)CC2)cc1 (stereo not given),C20,Canis familiaris [1],0.5 µM
same,Max delta,Canis familiaris [22],55%
same,Change,Canis familiaris [33],19%
same,Change,Canis familiaris [34],5%
same,No. effective,[35],2
same,IC50,[9],30.9 µM
same,Change,Canis familiaris [36],-25%
CS(=O)(=O)Nc1ccc(C(O)CNCCOc2ccc(-n3ccnc3)cc2)cc1 (stereo not given),IC50,[16],5.7 µM
same,Change,Canis familiaris [37],24%
same,C20 APD95,Canis familiaris [1],<1 µM
same,Max delta,Canis familiaris [2],155%
same,Change,Canis familiaris [38],-4%
same,Change,Canis familiaris [39],17%
same,Change,Canis familiaris [40],1%
same,Change,Canis familiaris [41],15%
same,Change,Canis familiaris [42],-18%
Cc1ccccc1OCC(O)CN1CCN(c2ccc(NS(C)(=O)=O)cc2)CC1 (stereo not given),Change,Canis familiaris [37],13%
same,C20,Canis familiaris [1],<4.5 µM
same,Max delta,Canis familiaris [22],53%
same,Change,Canis familiaris [3],13%
same,Change,Canis familiaris [39],11%
same,Change,Canis familiaris [5],-3%
same,Change,Canis familiaris [6],8%
same,Ratio,[43],2
same,No. effective,[44],4
same,IC50,[45],3.3 µM
same,IC50,[46],6.6 µM
same,IC50,[9],2.3 µM
same,Change,Canis familiaris [47],-11%
same,No. effective,[48],5
same,Ratio,[49],0.5
